# Laboratory results as given in ChEMBL document CHEMBL1156029, “The discovery of thienopyridine analogues as potent IkappaB kinase beta inhibitors. Part II” (Bioorg Med Chem Lett, 2009).
# Active and inactive are the calls of the source. The calls are words filed in the database; no cut-off is given here.
# Tests used:
# [1] = target: Fibroblast growth factor receptor 3 (Homo sapiens, UniProt P22607); assay: Inhibition of FGFR3
# Insulin receptor = Insulin receptor (Homo sapiens, UniProt P06213); assay: Inhibition of IR
# Chain of Insulin receptor (P06213 28-758 limits assumed): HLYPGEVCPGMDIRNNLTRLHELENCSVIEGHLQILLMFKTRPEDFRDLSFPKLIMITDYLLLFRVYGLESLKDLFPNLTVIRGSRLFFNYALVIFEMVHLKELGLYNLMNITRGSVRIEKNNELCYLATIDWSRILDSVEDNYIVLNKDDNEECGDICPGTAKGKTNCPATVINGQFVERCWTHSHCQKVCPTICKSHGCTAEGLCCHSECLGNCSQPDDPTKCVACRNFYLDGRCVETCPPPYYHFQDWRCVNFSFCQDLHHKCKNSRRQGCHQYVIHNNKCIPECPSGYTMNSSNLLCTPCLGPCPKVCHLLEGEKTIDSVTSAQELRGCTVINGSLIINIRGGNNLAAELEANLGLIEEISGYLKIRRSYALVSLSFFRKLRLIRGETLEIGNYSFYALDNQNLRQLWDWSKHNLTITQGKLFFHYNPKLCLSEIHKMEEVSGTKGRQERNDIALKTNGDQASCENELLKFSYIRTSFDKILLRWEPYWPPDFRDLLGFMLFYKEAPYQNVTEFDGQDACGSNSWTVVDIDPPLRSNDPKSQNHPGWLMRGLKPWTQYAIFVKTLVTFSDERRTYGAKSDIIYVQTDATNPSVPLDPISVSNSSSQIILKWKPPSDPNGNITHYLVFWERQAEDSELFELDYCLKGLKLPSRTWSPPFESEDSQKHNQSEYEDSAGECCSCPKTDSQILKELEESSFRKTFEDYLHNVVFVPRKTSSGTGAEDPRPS
# Chain of Insulin receptor (P06213 763-1382 limits assumed): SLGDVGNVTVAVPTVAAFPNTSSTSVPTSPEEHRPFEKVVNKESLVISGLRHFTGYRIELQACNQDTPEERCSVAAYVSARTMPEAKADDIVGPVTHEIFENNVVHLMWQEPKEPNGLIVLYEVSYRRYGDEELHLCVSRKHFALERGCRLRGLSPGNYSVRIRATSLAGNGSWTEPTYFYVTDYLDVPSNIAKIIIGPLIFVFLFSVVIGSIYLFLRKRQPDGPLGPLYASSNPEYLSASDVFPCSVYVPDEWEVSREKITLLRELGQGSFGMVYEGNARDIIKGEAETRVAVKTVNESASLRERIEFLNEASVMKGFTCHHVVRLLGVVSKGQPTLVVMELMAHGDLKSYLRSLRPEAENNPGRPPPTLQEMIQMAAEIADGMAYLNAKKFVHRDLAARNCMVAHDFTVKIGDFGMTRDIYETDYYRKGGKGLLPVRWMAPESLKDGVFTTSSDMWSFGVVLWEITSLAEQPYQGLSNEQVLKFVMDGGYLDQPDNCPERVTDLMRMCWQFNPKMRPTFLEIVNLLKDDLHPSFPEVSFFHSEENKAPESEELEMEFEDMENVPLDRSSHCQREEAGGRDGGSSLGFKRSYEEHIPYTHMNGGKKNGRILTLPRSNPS
# [2] = target: T1, Tyrosine-protein kinase ITK/TSK (Homo sapiens, UniProt Q08881); assay: Inhibition of Itk
# T1 sequence (Q08881 whole entry): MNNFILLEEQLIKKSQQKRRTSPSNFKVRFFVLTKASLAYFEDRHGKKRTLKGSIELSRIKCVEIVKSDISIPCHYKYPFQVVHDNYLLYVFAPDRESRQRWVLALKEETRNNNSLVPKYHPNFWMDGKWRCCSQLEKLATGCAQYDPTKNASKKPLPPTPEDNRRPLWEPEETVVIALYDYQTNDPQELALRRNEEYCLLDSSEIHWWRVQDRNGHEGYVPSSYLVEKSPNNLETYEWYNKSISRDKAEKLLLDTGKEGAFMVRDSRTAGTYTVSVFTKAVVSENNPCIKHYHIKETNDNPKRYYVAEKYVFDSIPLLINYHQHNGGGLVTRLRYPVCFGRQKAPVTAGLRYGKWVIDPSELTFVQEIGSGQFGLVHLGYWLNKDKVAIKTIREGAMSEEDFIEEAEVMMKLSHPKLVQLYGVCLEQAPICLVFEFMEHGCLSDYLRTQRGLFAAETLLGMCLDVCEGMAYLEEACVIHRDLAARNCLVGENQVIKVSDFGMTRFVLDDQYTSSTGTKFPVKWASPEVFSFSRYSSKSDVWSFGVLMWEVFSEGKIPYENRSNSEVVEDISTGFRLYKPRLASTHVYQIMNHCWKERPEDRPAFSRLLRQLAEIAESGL
# Blood = assay: Inhibition of LPS-induced TNFalpha production in human whole blood; assay type: functional, tissue-based
# Mus musculus [3] = assay: Inhibition of LPS-induced TNFalpha production in mouse at 100 mg/kg, po administered 60 mins before LPS challenge; assay type: functional
# Mus musculus [4] = assay: Inhibition of LPS-induced TNFalpha production in mouse at 30 mg/kg, po administered 60 mins before LPS challenge; assay type: functional
# Mus musculus [5] = assay: Inhibition of LPS-induced TNFalpha production in mouse at 10 mg/kg, po administered 60 mins before LPS challenge; assay type: functional
# [6] = Plasma concentration in mouse at 100 mg/kg, po after 120 mins; assay type: ADME, organism-based; set-up: dose 100 mg/kg, route oral
# [7] = Plasma concentration in mouse at 10 mg/kg, po after 120 mins; assay type: ADME, organism-based; set-up: dose 10 mg/kg, route oral
# [8] = target: Mitogen-activated protein kinase 1 (Homo sapiens) (UniProt P28482); assay: Inhibition of MAPK2/ERK2 at 10 uM
# Chain of Mitogen-activated protein kinase 1 (Homo sapiens) (P28482 whole entry): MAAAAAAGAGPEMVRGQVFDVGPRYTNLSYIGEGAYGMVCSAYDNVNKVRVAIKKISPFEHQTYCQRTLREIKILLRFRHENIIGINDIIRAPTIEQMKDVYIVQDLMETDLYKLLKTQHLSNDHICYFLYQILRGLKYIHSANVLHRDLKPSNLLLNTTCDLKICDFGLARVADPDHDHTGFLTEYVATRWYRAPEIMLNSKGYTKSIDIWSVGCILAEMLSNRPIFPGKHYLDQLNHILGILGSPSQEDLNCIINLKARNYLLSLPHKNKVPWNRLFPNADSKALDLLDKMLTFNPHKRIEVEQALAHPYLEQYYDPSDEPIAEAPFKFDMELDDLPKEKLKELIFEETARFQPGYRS
# [9] = target: Mitogen-activated protein kinase 14 (Homo sapiens) (UniProt Q16539); assay: Inhibition of p38alpha at 10 uM
# Chain of Mitogen-activated protein kinase 14 (Homo sapiens) (Q16539 whole entry): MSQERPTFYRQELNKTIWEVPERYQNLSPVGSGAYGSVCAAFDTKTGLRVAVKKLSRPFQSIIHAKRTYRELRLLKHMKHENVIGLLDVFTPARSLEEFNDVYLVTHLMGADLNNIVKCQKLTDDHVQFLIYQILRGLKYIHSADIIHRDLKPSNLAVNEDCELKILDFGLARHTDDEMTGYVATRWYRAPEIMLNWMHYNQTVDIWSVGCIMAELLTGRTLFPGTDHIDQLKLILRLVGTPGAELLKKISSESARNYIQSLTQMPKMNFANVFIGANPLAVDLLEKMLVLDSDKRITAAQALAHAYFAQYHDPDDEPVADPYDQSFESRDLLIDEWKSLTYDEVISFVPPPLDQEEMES
# [10] = Inhibition of PKA at 10 uM
# [11] = target: Protein kinase C alpha type (Homo sapiens) (UniProt P17252); assay: Inhibition of PKCalpha at 10 uM
# [12] = Inhibition of PH domain deficient PKBdelta at 10 uM
# [13] = target: Ribosomal protein S6 kinase beta-1 (Homo sapiens) (UniProt P23443); assay: Inhibition of S6K1 at 10 uM
# Chain of Ribosomal protein S6 kinase beta-1 (Homo sapiens) (P23443 whole entry, looked up): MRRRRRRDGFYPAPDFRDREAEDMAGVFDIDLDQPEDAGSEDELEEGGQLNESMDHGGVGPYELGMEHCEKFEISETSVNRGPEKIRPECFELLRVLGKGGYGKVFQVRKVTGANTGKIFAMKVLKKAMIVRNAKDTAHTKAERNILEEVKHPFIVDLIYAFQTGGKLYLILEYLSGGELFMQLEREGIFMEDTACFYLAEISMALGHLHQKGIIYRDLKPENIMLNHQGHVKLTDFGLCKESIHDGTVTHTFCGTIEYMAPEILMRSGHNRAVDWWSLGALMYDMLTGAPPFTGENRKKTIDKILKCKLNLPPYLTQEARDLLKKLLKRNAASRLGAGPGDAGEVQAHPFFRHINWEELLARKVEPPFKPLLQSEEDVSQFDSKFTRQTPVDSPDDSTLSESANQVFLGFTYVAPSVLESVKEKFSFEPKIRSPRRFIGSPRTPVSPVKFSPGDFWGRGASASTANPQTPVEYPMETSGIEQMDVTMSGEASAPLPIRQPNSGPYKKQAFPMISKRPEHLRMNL
# [14] = Inhibition of PHOS Kinase at 10 uM
# [15] = target: Tyrosine-protein kinase CSK (Homo sapiens) (UniProt P41240); assay: Inhibition of CSK at 10 uM
# [16] = target: Dual specificity tyrosine-phosphorylation-regulated kinase 1A (Homo sapiens) (UniProt Q13627); assay: Inhibition of DYRK1a at 10 uM
# [17] = target: Tyrosine-protein kinase BTK (Homo sapiens, UniProt Q06187); assay: Inhibition of Btk
# Chain of Tyrosine-protein kinase BTK (Q06187 whole entry): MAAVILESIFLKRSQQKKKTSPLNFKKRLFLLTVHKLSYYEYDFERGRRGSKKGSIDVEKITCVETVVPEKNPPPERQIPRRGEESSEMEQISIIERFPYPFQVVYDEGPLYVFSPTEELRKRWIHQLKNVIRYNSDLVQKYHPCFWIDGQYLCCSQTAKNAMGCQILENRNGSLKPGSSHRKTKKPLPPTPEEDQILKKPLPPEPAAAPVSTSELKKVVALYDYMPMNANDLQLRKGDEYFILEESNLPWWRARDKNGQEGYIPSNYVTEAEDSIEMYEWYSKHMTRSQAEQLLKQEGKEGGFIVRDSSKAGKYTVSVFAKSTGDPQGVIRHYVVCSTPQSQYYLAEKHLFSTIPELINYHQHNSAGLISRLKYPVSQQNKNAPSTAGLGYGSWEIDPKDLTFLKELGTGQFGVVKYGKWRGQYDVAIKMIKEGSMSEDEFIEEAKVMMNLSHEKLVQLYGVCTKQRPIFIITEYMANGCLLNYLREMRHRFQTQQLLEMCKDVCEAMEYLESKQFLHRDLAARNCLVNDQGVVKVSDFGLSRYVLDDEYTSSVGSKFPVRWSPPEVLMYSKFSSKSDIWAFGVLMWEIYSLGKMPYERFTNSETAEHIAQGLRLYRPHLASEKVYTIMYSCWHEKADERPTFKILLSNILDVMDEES
# [18] = target: Epidermal growth factor receptor (Homo sapiens, UniProt P00533)
# Chain of Fibroblast growth factor receptor 3 (P22607 whole entry): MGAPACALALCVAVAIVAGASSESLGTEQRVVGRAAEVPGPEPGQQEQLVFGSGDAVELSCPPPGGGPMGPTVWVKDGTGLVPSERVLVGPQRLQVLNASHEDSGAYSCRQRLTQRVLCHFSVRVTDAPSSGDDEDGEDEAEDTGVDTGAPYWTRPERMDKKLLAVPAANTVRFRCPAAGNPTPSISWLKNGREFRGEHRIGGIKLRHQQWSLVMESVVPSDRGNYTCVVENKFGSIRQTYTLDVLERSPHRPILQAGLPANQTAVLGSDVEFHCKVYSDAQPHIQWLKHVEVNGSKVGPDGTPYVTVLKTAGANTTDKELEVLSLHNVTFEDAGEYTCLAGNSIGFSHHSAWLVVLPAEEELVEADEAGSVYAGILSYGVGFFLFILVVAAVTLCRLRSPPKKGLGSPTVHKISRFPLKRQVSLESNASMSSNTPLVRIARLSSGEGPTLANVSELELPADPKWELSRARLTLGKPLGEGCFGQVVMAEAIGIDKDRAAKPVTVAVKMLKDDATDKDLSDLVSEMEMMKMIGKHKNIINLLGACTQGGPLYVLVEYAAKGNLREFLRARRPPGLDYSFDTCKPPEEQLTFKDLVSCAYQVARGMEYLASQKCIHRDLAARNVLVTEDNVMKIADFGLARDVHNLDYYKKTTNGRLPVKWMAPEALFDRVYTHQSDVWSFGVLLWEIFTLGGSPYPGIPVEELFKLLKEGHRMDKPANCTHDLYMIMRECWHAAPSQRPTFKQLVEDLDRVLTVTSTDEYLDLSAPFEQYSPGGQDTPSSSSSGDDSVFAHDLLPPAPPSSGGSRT
IC50 [1] [µM],IC50 (Insulin receptor) [µM],IC50 [2] [µM],IC50 (Blood) [µM],concentration at 2 h [6] [µM],concentration at 2 h [7] [µM],Activity [8],Activity [9],Activity [10],Activity [11],Activity [12],Activity [13],Activity [14],Activity [15],Activity [16],IC50 [17] [µM],IC50 [18] [µM],Compound,inhibition in vivo at 100 mg/kg (Mus musculus [3]) [%],inhibition in vivo at 30 mg/kg (Mus musculus [4]) [%],inhibition in vivo at 10 mg/kg (Mus musculus [5]) [%]
> 7,> 7,> 7,13,22.5,0.17,inactive,inactive,inactive,inactive,inactive,inactive,inactive,inactive,inactive,> 7,> 7,CCCc1cc(N2CCCC(O)C2)nc2sc(C(N)=O)c(N)c12 (stereo unspecified),93,67,14
> 7,–,> 7,3.2,3.5,< 0.01,inactive,inactive,inactive,inactive,inactive,inactive,inactive,inactive,inactive,> 7,–,CCCc1cc(N2CCNCC2)nc2sc(C(N)=O)c(N)c12,74,35,12
> 7,> 7,> 7,9.8,42.3,1.6,inactive,inactive,inactive,inactive,inactive,inactive,inactive,inactive,inactive,> 7,–,CCCc1cc(N2CCC(O)CC2)nc2sc(C(N)=O)c(N)c12,98,94,42
> 7,> 7,> 7,1.6,2.8,< 0.01,inactive,inactive,inactive,inactive,inactive,inactive,inactive,inactive,inactive,> 7,–,CCCc1cc(N2CCC(N)CC2)nc2sc(C(N)=O)c(N)c12,81,14,17
